Tests used:
CAL-51 [1] = assay: normalised viability (% of control), CellTiter-Blue; higher = more viable cells (about 100 = DMSO control); conditions: 300 nM; incubation time: 72 h
Method in brief: (§1)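 Plates were quality-checked by Z'-factor and normalised to vehicle (100) and a positive kill control (0). The underlying assay incubated breast cancer cell lines for 72 h on 384-well plates with compound, then added 2.5 µl CellTiter-Blue for 2 h at 37 °C and read at 560/590 nm. The value is normalised viability at a single listed concentration of the series.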

DU-4475 [2] = assay: as above; conditions: 300 nM; incubation time: 72 h
Method in brief: as §1

HDQ-P1 [3] = assay: as above; conditions: 300 nM; incubation time: 72 h
Method in brief: as §1

CAL-51 [4] = assay: drug sensitivity score (DSS), CellTiter-Blue viability (DSS (AUC-based score)); higher = stronger viability inhibition; extreme values may be limits of the assay; conditions: incubation time: 72 h
Experimental: (§2)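 DSRT with the CellTiter-Blue (resazurin reduction) viability readout, fluorescence 560/590 nm, 72 h incubation. Plates were normalised to DMSO and benzethonium chloride controls. DSS is computed from the area under the fitted dose-response curve (5 or 9 concentrations).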

MDA-MB-453 [5] = assay: as above; conditions: incubation time: 72 h
Experimental: as §2

BT-474 = assay: drug sensitivity score (DSS), CellTox Green (DSS (AUC-based score)); higher = stronger drug effect (viability inhibition or cytotoxicity); extreme values may be limits of the assay; conditions: incubation time: 72 h
Method in brief: (§3)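 In 384-well plates, compound was laid out at 5 concentrations in 10-fold steps over a 10,000-fold range specific to each compound, and breast cancer cell lines were seeded on top in 20 µl suspension for a 72 h incubation. CellTox Green fluorescence and then CellTiter-Glo luminescence were read, and each plate was normalised to 0.1 % DMSO and a positive kill control. The drug sensitivity score was calculated from the area under the fitted dose-response curve.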

BT-549 = assay: as above; conditions: incubation time: 72 h
Method in brief: as §3

CAL-120 = assay: as above; conditions: incubation time: 72 h
Method in brief: as §3

CAL-148 = assay: as above; conditions: incubation time: 72 h
Method in brief: as §3

CAL-51 [6] = assay: as above; conditions: incubation time: 72 h
Method in brief: as §3

CAL-85-1 = assay: as above; conditions: incubation time: 72 h
Method in brief: as §3

DU-4475 [7] = assay: as above; conditions: incubation time: 72 h
Method in brief: as §3

HCC1143 = assay: as above; conditions: incubation time: 72 h
Method in brief: as §3

HCC1599 = assay: as above; conditions: incubation time: 72 h
Method in brief: as §3

HCC1937 = assay: as above; conditions: incubation time: 72 h
Method in brief: as §3

HDQ-P1 [8] = assay: as above; conditions: incubation time: 72 h
Method in brief: as §3

Hs578T = assay: as above; conditions: incubation time: 72 h
Method in brief: as §3

MCF-10A = assay: as above; conditions: incubation time: 72 h
Method in brief: as §3

MDA-MB-231 = assay: as above; conditions: incubation time: 72 h
Method in brief: as §3

MDA-MB-436 = assay: as above; conditions: incubation time: 72 h
Method in brief: as §3

MDA-MB-453 [9] = assay: as above; conditions: incubation time: 72 h
Method in brief: as §3

MDA-MB-468 = assay: as above; conditions: incubation time: 72 h
Method in brief: as §3

MFM-223 = assay: as above; conditions: incubation time: 72 h
Method in brief: as §3

Structure (SMILES) | normalised viability (CAL-51 [1]) | normalised viability (DU-4475 [2]) | normalised viability (HDQ-P1 [3]) | drug sensitivity score (CAL-51 [4]) | drug sensitivity score (MDA-MB-453 [5]) | drug sensitivity score (BT-474) | drug sensitivity score (BT-549) | drug sensitivity score (CAL-120) | drug sensitivity score (CAL-148) | drug sensitivity score (CAL-51 [6]) | drug sensitivity score (CAL-85-1) | drug sensitivity score (DU-4475 [7]) | drug sensitivity score (HCC1143) | drug sensitivity score (HCC1599) | drug sensitivity score (HCC1937) | drug sensitivity score (HDQ-P1 [8]) | drug sensitivity score (Hs578T) | drug sensitivity score (MCF-10A) | drug sensitivity score (MDA-MB-231) | drug sensitivity score (MDA-MB-436) | drug sensitivity score (MDA-MB-453 [9]) | drug sensitivity score (MDA-MB-468) | drug sensitivity score (MFM-223)
Oc1ncc(N(CCCl)CCCl)c(O)n1 [Uracil mustard] | 96.4% | 80.8% | 94.8% | 0 | 0 | 0 | 0 | 0 | 0 | 0 | 0 | 0 | 0 | 0 | 0 | 0 | 0 | 0 | 0 | 0 | 0 | 0 | 0
CCCCC(=O)OCC(=O)[C@]1(O)Cc2c(O)c3c(c(O)c2[C@@H](O[C@H]2C[C@H](NC(=O)C(F)(F)F)[C@H](O)[C@H](C)O2)C1)C(=O)c1c(OC)cccc1C3=O [Valrubicin] | 34.5% | 23.4% | 72% | 20.6 | 11 | 0 | 0 | 0.113 | 10.8 | 8.29 | 0 | 0 | 0 | 0 | 0 | 0 | 0.113 | 0 | 0 | 3.14 | 0 | 5.83 | 0
CCCS(=O)(=O)Nc1ccc(F)c(C(=O)c2c[nH]c3ncc(-c4ccc(Cl)cc4)cc23)c1F [Vemurafenib] | 96.5% | 55.1% | 74.4% | 0 | 0 | 0 | 0 | 0 | 0 | 8.51 | 0 | 1.82 | 0 | 0 | 0 | 0 | 0 | 2.59 | 0.329 | 0 | 0 | 0 | 0
